Assay results published in US8486398B2, “Anticoagulant antidotes comprising antibodies that bind dabigatran and/or related compounds” (Boehringer Ingelheim International GmbH, priority 2010, dated 2013).
“And” between values parts separate entries of the source, which are not always exact repeats. Equal entries are not always repeated. Where two headings read alike, the source gives them in different places.

Legend:
[1] = compared with dabigatran; cited from earlier work
[2] = molecular target: thrombin (Bos taurus, UniProt P00735)
Description: Briefly human plasma is obtained by taking whole blood into 3.13% sodium citrate. This is then centrifuged to obtain platelet free plasma and transferred to a separate tube and frozen until required on the day of the assay. Plasma is thawed at 37° C. on the day of the assay.
The thrombin clotting time is performed as follows. First thrombin is diluted to manufacturer's specification (3 IU/mL thrombin) in the buffer provided (Dade Behring Test kit) and prewarmed to 37° C. It is used within 2 hrs of being prepared. All assays were performed on a commercially available CL4 clotting machine (Behnk Electronics, Norderstadt, Germany). Fifty μL of plasma is pipetted into provided cuvettes with a magnetic stirrer and allowed to stir for 2 min in the well preheated to 37° C. in the CL4 machine. At this point 100 μL of the thrombin solution is added and the time required for the plasma sample to clot is recorded automatically by the CL4. Dabigatran is preincubated for 5 min in plasma in the provided cuvettes, before adding thrombin and starting the measurement. If antibody is also tested (up 50 μL of stock solution), there is a further 5 minute incubation at 37° C. before beginning clotting (i.e. 10 min total incubation with dabigatran, 5 min total incubation with antibody and then clotting is initiated with thrombin).

Compound	prolongation of the activated partial thromboplastin time [1]	thrombin clotting time ([2]; 200 nM dabigatran preincubated with human plasma, baseline 10.9-11 seconds)	elevation in clotting time over baseline ([2]; 200 nM dabigatran, human plasma) [fold]	increase in clotting time over baseline ([2]; 500 nM dabigatran, human plasma) [fold]	thrombin clotting time ([2]; 500 nM dabigatran, human plasma, baseline 10.9 seconds) [s]	concentration dependence of thrombin clotting time ([2]; increasing concentrations of dabigatran, human plasma)
Cn1c(CNc2ccc(C(=N)N)cc2)nc2cc(C(=O)N(CCC(=O)OC3OC(C(=O)O)C(O)C(O)C3O)c3ccccn3)ccc21 (stereo not drawn) [1-O-acylglucuronide]	equipotent prolongation of the activated partial thromboplastin time compared with dabigatran	–	–	–	–	–
Cn1c(CNc2ccc(C(=N)N)cc2)nc2cc(C(=O)N(CCC(=O)O)c3ccccn3)ccc21 [dabigatran, N-[2-(4-Amidinophenylaminomethyl)-1-methyl-1H-benzimidazol-5-ylcarbonyl]-N-(2-pyridyl)-beta-alanine]	–	51 s and 63.7 s	~5	~10	111.7	concentration-dependent increase in the thrombin clotting time
